Where two headings read alike, the source gives them in different places.
Assays:
Test in all cases: selectivity profiling in a panel of 340 wild-type kinases (Reaction Biology Europe)
Assay type in all cases: binding
340 wild-type kinases [1] = biological target: T1, 340 wild-type kinases (Homo sapiens, UniProt P04629)
T1 construct: purchased Reaction Biology Europe

340 wild-type kinases [2] = biological target: T2, 340 wild-type kinases (Homo sapiens, UniProt Q13470)
T2 construct: purchased Reaction Biology Europe
T2 sequence (Q13470 1-666): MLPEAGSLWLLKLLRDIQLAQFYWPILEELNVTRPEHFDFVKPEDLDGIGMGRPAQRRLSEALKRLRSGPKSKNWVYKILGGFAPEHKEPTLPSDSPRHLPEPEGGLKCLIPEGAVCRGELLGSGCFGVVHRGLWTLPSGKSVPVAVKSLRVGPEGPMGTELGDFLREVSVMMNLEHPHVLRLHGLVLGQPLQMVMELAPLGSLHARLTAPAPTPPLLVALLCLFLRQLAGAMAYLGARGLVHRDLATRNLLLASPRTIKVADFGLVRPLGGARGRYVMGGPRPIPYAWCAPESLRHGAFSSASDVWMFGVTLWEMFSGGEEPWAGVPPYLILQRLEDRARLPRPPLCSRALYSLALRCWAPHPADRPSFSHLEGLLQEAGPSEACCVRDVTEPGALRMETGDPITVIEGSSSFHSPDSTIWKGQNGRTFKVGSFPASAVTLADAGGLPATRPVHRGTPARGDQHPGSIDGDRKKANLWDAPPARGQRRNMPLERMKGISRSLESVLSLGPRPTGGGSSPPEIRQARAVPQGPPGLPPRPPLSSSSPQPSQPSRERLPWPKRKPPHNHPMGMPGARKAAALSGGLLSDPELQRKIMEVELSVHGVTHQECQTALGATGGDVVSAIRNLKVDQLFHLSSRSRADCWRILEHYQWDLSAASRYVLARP

340 wild-type kinases [3] = biological target: T3, 340 wild-type kinases (Homo sapiens, UniProt Q8N4C8)
T3 construct: purchased Reaction Biology Europe

340 wild-type kinases [4] = biological target: T4, 340 wild-type kinases (Homo sapiens, UniProt P31751)
T4 construct: purchased Reaction Biology Europe

340 wild-type kinases [5] = biological target: T5, 340 wild-type kinases (Homo sapiens, UniProt P24723)
T5 construct: purchased Reaction Biology Europe

340 wild-type kinases [6] = biological target: T6, 340 wild-type kinases (Homo sapiens, UniProt P49760)
T6 construct: purchased Reaction Biology Europe

340 wild-type kinases [7] = biological target: T7, 340 wild-type kinases (Homo sapiens, UniProt Q9H4B4)
T7 construct: purchased Reaction Biology Europe

340 wild-type kinases [8] = biological target: T8, 340 wild-type kinases (Homo sapiens, UniProt Q16288)
T8 construct: purchased Reaction Biology Europe

340 wild-type kinases [9] = biological target: T9, 340 wild-type kinases (Homo sapiens, UniProt Q16644)
T9 construct: purchased Reaction Biology Europe

340 wild-type kinases [10] = biological target: T10, 340 wild-type kinases (Homo sapiens, UniProt P33981)
T10 construct: purchased Reaction Biology Europe
T10 sequence (P33981 1-857): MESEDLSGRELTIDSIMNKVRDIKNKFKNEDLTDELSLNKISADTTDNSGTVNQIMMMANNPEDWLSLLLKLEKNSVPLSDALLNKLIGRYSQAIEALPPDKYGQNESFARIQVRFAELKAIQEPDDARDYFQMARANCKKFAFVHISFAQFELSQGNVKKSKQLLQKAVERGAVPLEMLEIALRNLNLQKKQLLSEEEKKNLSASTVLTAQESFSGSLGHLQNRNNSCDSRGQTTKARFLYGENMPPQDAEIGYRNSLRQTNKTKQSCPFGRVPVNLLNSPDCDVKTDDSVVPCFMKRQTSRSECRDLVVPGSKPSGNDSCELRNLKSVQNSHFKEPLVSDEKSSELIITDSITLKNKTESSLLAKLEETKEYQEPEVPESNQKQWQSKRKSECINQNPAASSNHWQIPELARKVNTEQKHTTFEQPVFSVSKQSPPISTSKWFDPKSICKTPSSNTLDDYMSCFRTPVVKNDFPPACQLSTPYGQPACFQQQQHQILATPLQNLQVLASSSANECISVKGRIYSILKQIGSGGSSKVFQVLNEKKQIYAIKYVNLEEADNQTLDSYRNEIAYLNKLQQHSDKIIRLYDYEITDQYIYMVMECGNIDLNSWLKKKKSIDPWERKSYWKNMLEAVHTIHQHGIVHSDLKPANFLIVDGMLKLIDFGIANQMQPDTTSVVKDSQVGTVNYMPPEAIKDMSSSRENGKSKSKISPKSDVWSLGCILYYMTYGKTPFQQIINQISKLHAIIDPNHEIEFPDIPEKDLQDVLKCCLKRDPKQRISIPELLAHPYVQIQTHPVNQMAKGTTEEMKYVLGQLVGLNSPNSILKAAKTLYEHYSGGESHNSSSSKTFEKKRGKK

340 wild-type kinases [11] = biological target: T11, 340 wild-type kinases (Homo sapiens, UniProt P29317)
T11 construct: purchased Reaction Biology Europe

T3 sequence (Q8N4C8 whole entry): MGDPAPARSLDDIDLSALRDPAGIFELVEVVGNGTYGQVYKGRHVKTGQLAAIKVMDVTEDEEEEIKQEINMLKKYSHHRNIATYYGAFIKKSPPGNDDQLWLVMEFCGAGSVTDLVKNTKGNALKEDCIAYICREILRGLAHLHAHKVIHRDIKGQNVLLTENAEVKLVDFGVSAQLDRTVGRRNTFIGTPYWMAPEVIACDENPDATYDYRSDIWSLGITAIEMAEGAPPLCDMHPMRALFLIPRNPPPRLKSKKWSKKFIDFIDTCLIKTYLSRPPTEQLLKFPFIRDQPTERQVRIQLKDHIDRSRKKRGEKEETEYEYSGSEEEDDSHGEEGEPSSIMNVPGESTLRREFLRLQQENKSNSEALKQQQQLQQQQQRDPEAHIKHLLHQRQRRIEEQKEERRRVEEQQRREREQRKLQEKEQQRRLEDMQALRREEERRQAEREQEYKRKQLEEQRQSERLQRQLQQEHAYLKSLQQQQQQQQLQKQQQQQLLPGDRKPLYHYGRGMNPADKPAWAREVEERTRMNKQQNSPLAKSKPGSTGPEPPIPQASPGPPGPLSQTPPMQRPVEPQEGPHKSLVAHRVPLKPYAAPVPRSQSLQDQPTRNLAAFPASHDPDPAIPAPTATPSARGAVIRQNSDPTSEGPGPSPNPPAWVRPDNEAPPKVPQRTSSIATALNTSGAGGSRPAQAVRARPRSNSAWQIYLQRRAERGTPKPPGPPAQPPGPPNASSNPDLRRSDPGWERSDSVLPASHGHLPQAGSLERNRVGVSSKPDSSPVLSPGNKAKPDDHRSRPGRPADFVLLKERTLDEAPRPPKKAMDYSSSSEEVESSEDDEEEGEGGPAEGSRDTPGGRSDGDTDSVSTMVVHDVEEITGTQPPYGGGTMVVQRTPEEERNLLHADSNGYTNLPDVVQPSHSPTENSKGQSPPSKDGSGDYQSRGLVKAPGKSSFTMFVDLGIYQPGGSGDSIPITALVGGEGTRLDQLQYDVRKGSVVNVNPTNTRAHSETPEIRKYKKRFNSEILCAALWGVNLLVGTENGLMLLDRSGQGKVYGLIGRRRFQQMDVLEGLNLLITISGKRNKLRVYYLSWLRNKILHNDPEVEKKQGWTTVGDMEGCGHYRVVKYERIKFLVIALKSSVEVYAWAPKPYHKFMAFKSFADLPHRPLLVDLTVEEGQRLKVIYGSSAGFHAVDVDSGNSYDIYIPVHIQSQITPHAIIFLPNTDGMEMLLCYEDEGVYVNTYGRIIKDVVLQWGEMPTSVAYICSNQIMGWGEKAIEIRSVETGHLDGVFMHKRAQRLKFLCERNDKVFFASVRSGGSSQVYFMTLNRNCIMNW
T5 sequence (P24723 whole entry): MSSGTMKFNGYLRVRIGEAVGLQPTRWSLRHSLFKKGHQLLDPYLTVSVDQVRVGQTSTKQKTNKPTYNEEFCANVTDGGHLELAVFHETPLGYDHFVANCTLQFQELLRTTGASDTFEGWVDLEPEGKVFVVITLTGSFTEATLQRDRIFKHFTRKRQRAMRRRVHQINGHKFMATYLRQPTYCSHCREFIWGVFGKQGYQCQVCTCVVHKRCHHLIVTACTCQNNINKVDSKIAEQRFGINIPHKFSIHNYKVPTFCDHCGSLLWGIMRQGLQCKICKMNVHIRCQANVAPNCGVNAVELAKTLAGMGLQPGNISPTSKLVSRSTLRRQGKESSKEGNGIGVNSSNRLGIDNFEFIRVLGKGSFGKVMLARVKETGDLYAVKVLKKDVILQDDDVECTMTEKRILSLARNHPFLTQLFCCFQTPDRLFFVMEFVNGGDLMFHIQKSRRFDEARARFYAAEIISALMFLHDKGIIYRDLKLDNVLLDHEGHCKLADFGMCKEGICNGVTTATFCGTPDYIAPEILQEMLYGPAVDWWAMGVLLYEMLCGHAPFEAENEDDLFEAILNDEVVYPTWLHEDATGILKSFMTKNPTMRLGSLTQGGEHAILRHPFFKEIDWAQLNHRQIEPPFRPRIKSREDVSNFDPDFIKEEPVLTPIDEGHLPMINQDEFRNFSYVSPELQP
T9 sequence (Q16644 whole entry): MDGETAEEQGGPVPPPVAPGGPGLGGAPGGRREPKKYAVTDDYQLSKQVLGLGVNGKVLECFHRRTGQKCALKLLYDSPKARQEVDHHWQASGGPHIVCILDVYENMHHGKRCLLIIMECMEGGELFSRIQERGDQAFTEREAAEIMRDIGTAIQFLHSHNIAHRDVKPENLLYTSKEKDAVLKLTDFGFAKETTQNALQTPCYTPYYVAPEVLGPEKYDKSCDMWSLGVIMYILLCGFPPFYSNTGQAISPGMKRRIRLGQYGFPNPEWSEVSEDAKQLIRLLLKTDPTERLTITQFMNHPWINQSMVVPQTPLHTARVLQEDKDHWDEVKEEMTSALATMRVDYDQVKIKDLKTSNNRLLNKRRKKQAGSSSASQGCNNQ
T7 sequence (Q9H4B4 whole entry): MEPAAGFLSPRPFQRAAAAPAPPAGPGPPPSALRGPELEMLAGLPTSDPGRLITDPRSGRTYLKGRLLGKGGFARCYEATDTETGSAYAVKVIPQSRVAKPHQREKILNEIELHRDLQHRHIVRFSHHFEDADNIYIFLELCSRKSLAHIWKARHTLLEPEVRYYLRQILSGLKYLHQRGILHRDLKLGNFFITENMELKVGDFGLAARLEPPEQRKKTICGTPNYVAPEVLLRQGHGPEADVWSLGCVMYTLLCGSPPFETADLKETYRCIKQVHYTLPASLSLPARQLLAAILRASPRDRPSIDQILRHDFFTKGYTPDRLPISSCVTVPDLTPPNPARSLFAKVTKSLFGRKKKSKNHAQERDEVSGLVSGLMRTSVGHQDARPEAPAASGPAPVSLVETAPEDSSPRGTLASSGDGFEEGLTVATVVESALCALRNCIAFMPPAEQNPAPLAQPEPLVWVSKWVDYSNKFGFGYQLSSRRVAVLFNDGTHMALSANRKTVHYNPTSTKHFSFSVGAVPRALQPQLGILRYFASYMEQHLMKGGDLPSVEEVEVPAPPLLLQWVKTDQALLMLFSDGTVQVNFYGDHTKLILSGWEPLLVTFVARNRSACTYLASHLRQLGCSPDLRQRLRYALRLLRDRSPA
T8 sequence (Q16288 32-839): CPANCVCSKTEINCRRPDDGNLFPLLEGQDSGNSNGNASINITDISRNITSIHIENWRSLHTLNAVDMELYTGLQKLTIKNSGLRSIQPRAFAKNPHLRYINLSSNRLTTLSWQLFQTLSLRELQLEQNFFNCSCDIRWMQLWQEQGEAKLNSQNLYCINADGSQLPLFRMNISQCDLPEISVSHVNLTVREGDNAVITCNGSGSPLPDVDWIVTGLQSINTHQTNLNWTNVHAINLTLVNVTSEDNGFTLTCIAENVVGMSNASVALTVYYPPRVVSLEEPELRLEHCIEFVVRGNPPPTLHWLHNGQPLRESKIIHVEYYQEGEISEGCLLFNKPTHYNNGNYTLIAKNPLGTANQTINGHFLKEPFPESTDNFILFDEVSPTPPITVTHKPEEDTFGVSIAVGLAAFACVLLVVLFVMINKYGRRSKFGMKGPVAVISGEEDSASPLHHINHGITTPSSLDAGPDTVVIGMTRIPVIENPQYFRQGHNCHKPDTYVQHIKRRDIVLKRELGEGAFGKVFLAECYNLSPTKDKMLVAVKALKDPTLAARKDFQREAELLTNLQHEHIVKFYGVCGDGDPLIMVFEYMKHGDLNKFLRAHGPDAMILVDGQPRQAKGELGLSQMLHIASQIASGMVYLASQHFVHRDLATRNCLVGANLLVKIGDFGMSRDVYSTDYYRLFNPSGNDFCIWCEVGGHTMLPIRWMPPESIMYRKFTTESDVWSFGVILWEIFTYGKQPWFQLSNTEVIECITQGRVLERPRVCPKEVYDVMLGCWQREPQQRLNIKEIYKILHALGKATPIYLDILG
T6 sequence (P49760 whole entry): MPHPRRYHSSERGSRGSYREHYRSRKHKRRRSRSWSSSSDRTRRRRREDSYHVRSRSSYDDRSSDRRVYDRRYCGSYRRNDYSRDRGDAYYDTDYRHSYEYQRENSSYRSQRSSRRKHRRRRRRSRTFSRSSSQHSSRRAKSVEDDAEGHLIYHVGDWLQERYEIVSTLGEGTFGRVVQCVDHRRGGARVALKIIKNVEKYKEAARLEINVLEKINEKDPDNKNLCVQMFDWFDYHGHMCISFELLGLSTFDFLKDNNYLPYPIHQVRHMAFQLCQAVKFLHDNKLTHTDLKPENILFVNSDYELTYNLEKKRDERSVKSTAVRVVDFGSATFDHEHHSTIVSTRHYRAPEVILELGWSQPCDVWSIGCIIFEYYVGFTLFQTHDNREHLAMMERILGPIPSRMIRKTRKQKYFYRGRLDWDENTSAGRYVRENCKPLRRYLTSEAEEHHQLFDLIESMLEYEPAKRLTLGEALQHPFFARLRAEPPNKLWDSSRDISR
T4 sequence (P31751 whole entry): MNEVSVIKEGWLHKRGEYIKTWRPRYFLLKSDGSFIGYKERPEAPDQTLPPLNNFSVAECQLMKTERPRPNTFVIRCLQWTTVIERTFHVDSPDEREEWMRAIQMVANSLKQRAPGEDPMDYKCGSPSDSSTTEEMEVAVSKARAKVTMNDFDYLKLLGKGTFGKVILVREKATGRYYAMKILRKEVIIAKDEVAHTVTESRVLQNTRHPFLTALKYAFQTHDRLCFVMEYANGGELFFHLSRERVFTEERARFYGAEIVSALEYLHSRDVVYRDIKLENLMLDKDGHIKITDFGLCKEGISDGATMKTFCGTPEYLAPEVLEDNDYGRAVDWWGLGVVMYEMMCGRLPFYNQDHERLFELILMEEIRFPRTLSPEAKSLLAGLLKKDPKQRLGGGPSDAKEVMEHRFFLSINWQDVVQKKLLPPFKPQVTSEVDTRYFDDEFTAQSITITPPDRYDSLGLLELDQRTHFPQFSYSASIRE

Structure (SMILES): CNC(=O)c1ccc2c(c1)C(=O)c1ccc(Nc3ccc(F)c(NC(=O)C4CC4)c3)cc1CC2 [Compound 2015]
- remaining activity at 0.2 µM (340 wild-type kinases [1]; 0.2 µM 2015, read-out: TRKA residual activity): 109%
- remaining activity at 1 µM (340 wild-type kinases [1]; 1 µM 2015, read-out: TRKA residual activity): 96.5%
- remaining activity at 0.2 µM (340 wild-type kinases [1]; TRKA, 0.2 µM, read-out: residual activity): 109%
- remaining activity at 1 µM (340 wild-type kinases [1]; TRKA, 1 µM, read-out: residual activity): 96.5%
- remaining activity at 0.2 µM (340 wild-type kinases [2]; 0.2 µM 2015, read-out: TNK1 residual activity): 92.8%
- remaining activity at 1 µM (340 wild-type kinases [2]; 1 µM 2015, read-out: TNK1 residual activity): 85.3%
- remaining activity at 0.2 µM (340 wild-type kinases [2]; TNK1, 0.2 µM, read-out: residual activity): 92.8%
- remaining activity at 1 µM (340 wild-type kinases [2]; TNK1, 1 µM, read-out: residual activity): 85.3%
- remaining activity at 0.2 µM (340 wild-type kinases [3]; 0.2 µM 2015, read-out: MINK1 residual activity): 88.4%
- remaining activity at 1 µM (340 wild-type kinases [3]; 1 µM 2015, read-out: MINK1 residual activity): 84.4%
- remaining activity at 0.2 µM (340 wild-type kinases [3]; MINK1, 0.2 µM, read-out: residual activity): 88.4%
- remaining activity at 1 µM (340 wild-type kinases [3]; MINK1, 1 µM, read-out: residual activity): 84.4%
- remaining activity at 0.2 µM (340 wild-type kinases [4]; 0.2 µM 2015, read-out: AKT2 residual activity): 64.5%
- remaining activity at 1 µM (340 wild-type kinases [4]; 1 µM 2015, read-out: AKT2 residual activity): 93%
- remaining activity at 0.2 µM (340 wild-type kinases [4]; AKT2, 0.2 µM, read-out: residual activity): 64.5%
- remaining activity at 1 µM (340 wild-type kinases [4]; AKT2, 1 µM, read-out: residual activity): 93%
- remaining activity at 0.2 µM (340 wild-type kinases [5]; 0.2 µM 2015, read-out: PKCeta residual activity): 80.3%
- remaining activity at 1 µM (340 wild-type kinases [5]; 1 µM 2015, read-out: PKCeta residual activity): 90.1%
- remaining activity at 0.2 µM (340 wild-type kinases [5]; PKCeta, 0.2 µM, read-out: residual activity): 80.3%
- remaining activity at 1 µM (340 wild-type kinases [5]; PKCeta, 1 µM, read-out: residual activity): 90.1%
- remaining activity at 0.2 µM (340 wild-type kinases [6]; 0.2 µM 2015, read-out: CLK2 residual activity): 110%
- remaining activity at 1 µM (340 wild-type kinases [6]; 1 µM 2015, read-out: CLK2 residual activity): 96.8%
- remaining activity at 0.2 µM (340 wild-type kinases [6]; CLK2, 0.2 µM, read-out: residual activity): 110%
- remaining activity at 1 µM (340 wild-type kinases [6]; CLK2, 1 µM, read-out: residual activity): 96.8%
- remaining activity at 0.2 µM (340 wild-type kinases [7]; 0.2 µM 2015, read-out: PLK3 residual activity): 101%
- remaining activity at 1 µM (340 wild-type kinases [7]; 1 µM 2015, read-out: PLK3 residual activity): 134%
- remaining activity at 0.2 µM (340 wild-type kinases [7]; PLK3, 0.2 µM, read-out: residual activity): 101%
- remaining activity at 1 µM (340 wild-type kinases [7]; PLK3, 1 µM, read-out: residual activity): 134%
- remaining activity at 0.2 µM (340 wild-type kinases [8]; 0.2 µM 2015, read-out: TRKC residual activity): 104%
- remaining activity at 1 µM (340 wild-type kinases [8]; 1 µM 2015, read-out: TRKC residual activity): 94.3%
- remaining activity at 0.2 µM (340 wild-type kinases [8]; TRKC, 0.2 µM, read-out: residual activity): 104%
- remaining activity at 1 µM (340 wild-type kinases [8]; TRKC, 1 µM, read-out: residual activity): 94.3%
- remaining activity at 0.2 µM (340 wild-type kinases [9]; 0.2 µM 2015, read-out: MAPKAPK3 residual activity): 97.3%
- remaining activity at 1 µM (340 wild-type kinases [9]; 1 µM 2015, read-out: MAPKAPK3 residual activity): 86.1%
- remaining activity at 0.2 µM (340 wild-type kinases [9]; MAPKAPK3, 0.2 µM, read-out: residual activity): 97.3%
- remaining activity at 1 µM (340 wild-type kinases [9]; MAPKAPK3, 1 µM, read-out: residual activity): 86.1%
- remaining activity at 0.2 µM (340 wild-type kinases [10]; 0.2 µM 2015, read-out: TTK residual activity): 95.3%
- remaining activity at 1 µM (340 wild-type kinases [10]; 1 µM 2015, read-out: TTK residual activity): 90.4%
- remaining activity at 0.2 µM (340 wild-type kinases [10]; TTK, 0.2 µM, read-out: residual activity): 95.3%
- remaining activity at 1 µM (340 wild-type kinases [10]; TTK, 1 µM, read-out: residual activity): 90.4%
- remaining activity at 0.2 µM (340 wild-type kinases [11]; 0.2 µM 2015, read-out: EPHA2 residual activity): 98.4%
- remaining activity at 1 µM (340 wild-type kinases [11]; 1 µM 2015, read-out: EPHA2 residual activity): 102%
- remaining activity at 0.2 µM (340 wild-type kinases [11]; EPHA2, 0.2 µM, read-out: residual activity): 98.4%
- remaining activity at 1 µM (340 wild-type kinases [11]; EPHA2, 1 µM, read-out: residual activity): 102%

— article PMC11864979, “First-in-class ultralong-target-residence-time p38α inhibitors as a mitosis-targeted therapy for colorectal cancer” (Nature Cancer, 2025)
